Measured values taken from PubChem BioAssay (NCI).
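These data come from cells grown in 96-well plates and exposed to compound for 48 hours at five concentrations. TGI marks complete inhibition of growth.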

Columns and labels:
Experiment in all cases: inhibition of tumour cell growth, NCI panel, 48 h
SK-MEL-28 melanoma = system: SK-MEL-28 melanoma
MOLT-4 leukemia = system: MOLT-4 leukemia
RPMI-8226 leukemia = system: RPMI-8226 leukemia
LOX IMVI melanoma = system: LOX IMVI melanoma
SF-268 CNS = system: SF-268 CNS
K-562 leukemia = system: K-562 leukemia
OVCAR-3 ovarian = system: OVCAR-3 ovarian
MALME-3M melanoma = system: MALME-3M melanoma
OVCAR-4 ovarian = system: OVCAR-4 ovarian
M14 melanoma = system: M14 melanoma
MDA-N = system: MDA-N
A549 NSCLC = system: A549 NSCLC
ACHN renal = system: ACHN renal
SN12C renal = system: SN12C renal
MDA-MB-435 = system: MDA-MB-435
IGROV1 ovarian = system: IGROV1 ovarian
SF-295 CNS = system: SF-295 CNS
DU-145 prostate = system: DU-145 prostate
TK-10 renal = system: TK-10 renal
HL-60(TB) leukemia = system: HL-60(TB) leukemia
SW-620 colon = system: SW-620 colon
SNB-75 CNS = system: SNB-75 CNS
HCC-2998 colon = system: HCC-2998 colon
UO-31 renal = system: UO-31 renal
U251 CNS = system: U251 CNS
SK-MEL-5 melanoma = system: SK-MEL-5 melanoma
NCI-H226 lung = system: NCI-H226 lung
HOP-62 NSCLC = system: HOP-62 NSCLC
COLO 205 colon = system: COLO 205 colon
HOP-92 NSCLC = system: HOP-92 NSCLC
OVCAR-8 ovarian = system: OVCAR-8 ovarian
HS 578T breast = system: HS 578T breast
A498 renal = system: A498 renal
UACC-257 melanoma = system: UACC-257 melanoma
CCRF-CEM leukemia = system: CCRF-CEM leukemia
RXF 393 renal = system: RXF 393 renal
HCT-15 colon = system: HCT-15 colon
EKVX NSCLC = system: EKVX NSCLC
SF-539 CNS = system: SF-539 CNS
KM12 colon = system: KM12 colon
SK-OV-3 ovarian = system: SK-OV-3 ovarian
NCI-H522 lung = system: NCI-H522 lung
SK-MEL-2 melanoma = system: SK-MEL-2 melanoma
NCI/ADR-RES ovarian = system: NCI/ADR-RES ovarian
UACC-62 melanoma = system: UACC-62 melanoma
SR leukemia = system: SR leukemia
PC-3 prostate = system: PC-3 prostate
CAKI-1 renal = system: CAKI-1 renal
T-47D breast = system: T-47D breast
MDA-MB-231 breast = system: MDA-MB-231 breast
786-0 renal = system: 786-0 renal
HT29 colon = system: HT29 colon
SNB-19 CNS = system: SNB-19 CNS
NCI-H460 lung = system: NCI-H460 lung
MCF7 breast = system: MCF7 breast
NCI-H23 lung = system: NCI-H23 lung
HCT-116 colon = system: HCT-116 colon
OVCAR-5 ovarian = system: OVCAR-5 ovarian
BT-549 breast = system: BT-549 breast

Measured: TGI

CC(=O)CC(O)(C(F)(F)Cl)C(F)(F)Cl
not listed: OVCAR-5 ovarian | BT-549 breast
> 10 µM: all other assays above

O=C1CC[C@@]2(O)[C@H]3Cc4ccc(-c5cccc(O)c5)c5c4[C@@]2(CCN3CC2CC2)[C@H]1O5
29.2 µM: NCI-H460 lung
> 84 µM: NCI-H23 lung
31.2 µM: SK-MEL-5 melanoma
25.1 µM: U251 CNS
> 85.9 µM: ACHN renal
71.3 µM: HCT-15 colon
34.1 µM: HCC-2998 colon
> 92.4 µM: MCF7 breast
27.2 µM: LOX IMVI melanoma
> 30.4 µM: EKVX NSCLC
90.2 µM: NCI-H226 lung
0.513 µM: CCRF-CEM leukemia
53.2 µM: NCI/ADR-RES ovarian
43.3 µM: COLO 205 colon
> 100 µM: SK-MEL-28 melanoma | OVCAR-4 ovarian | A549 NSCLC | DU-145 prostate | CAKI-1 renal | SNB-19 CNS
66.9 µM: SR leukemia
> 89.6 µM: IGROV1 ovarian
36.6 µM: SF-539 CNS | 786-0 renal
52.1 µM: RPMI-8226 leukemia
26.2 µM: M14 melanoma
27.8 µM: MDA-MB-435
52.7 µM: RXF 393 renal
76.6 µM: BT-549 breast
26.5 µM: UACC-257 melanoma
> 83.3 µM: SN12C renal
80.8 µM: HOP-92 NSCLC
33.4 µM: HT29 colon
47 µM: K-562 leukemia | TK-10 renal
28.2 µM: UACC-62 melanoma
57.5 µM: KM12 colon
24.8 µM: SK-MEL-2 melanoma
30.9 µM: MDA-N | NCI-H522 lung
38.6 µM: HCT-116 colon
42.7 µM: UO-31 renal
> 80.3 µM: OVCAR-5 ovarian
66.2 µM: HOP-62 NSCLC
56.4 µM: MOLT-4 leukemia
48.3 µM: A498 renal
67.1 µM: SF-268 CNS
> 55.6 µM: SW-620 colon
4.92 µM: HL-60(TB) leukemia
46.9 µM: MDA-MB-231 breast
43.9 µM: OVCAR-3 ovarian | SF-295 CNS
> 91.2 µM: PC-3 prostate
44.4 µM: OVCAR-8 ovarian

O=C1c2ccccc2C2=Cc3ccccc3C(O)N12 (centres undefined)
35 µM: UO-31 renal
40.8 µM: NCI-H522 lung
91.9 µM: MOLT-4 leukemia
64.1 µM: HL-60(TB) leukemia
43.2 µM: CAKI-1 renal
83.8 µM: RXF 393 renal
83.5 µM: SR leukemia
65.3 µM: UACC-62 melanoma
not listed: BT-549 breast
> 100 µM: all other assays above
